What was measured:
Assay type in all cases: in vivo
[1] = test system: ECHCG: barnyardgrass (Echinochloa crus-galli); assay: Post-emergent herbicidal test, barnyardgrass; settings: post-emergence, 336 h, 14 days after application, read-out: Visual Growth Reduction (%) 14 Days After Application ECHCG; for pest or weed control at 17.5 g/ha: 17.5 g ai/ha; for pest or weed control at 35 g/ha: 35 g ai/ha; for pest or weed control at 70 g/ha: 70 g ai/ha; for pest or weed control at 140 g/ha: 140 g ai/ha
How it was run: (§1)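 Post-emergence foliar spray, 187 L/ha, 1st–2nd true leaf plants; vehicle acetone/DMSO/IPA/water + Atplus 411F + Triton X-155; solvent-blank controls; subirrigated; 14 d greenhouse, visual % injury.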

[2] = test system: CIRAR: Canada thistle (Cirsium arvense); assay: Post-emergent herbicidal test, Canada thistle; settings: post-emergence, 336 h, 14 days after application, read-out: Visual Growth Reduction (%) 14 Days After Application CIRAR; for pest or weed control at 17.5 g/ha: 17.5 g ai/ha; for pest or weed control at 35 g/ha: 35 g ai/ha; for pest or weed control at 70 g/ha: 70 g ai/ha; for pest or weed control at 140 g/ha: 140 g ai/ha
How it was run: as §1

[3] = test system: BRSNN: oilseed rape, canola (Brassica napus); assay: Post-emergent herbicidal test, oilseed rape; settings: post-emergence, 336 h, 14 days after application, read-out: Visual Growth Reduction (%) 14 Days After Application BRSNN; for pest or weed control at 17.5 g/ha: 17.5 g ai/ha; for pest or weed control at 35 g/ha: 35 g ai/ha; for pest or weed control at 70 g/ha: 70 g ai/ha; for pest or weed control at 140 g/ha: 140 g ai/ha
How it was run: as §1

[4] = test system: EPHHL: wild poinsettia (Euphorbia heterophylla); assay: Post-emergent herbicidal test, wild poinsettia; settings: post-emergence, 336 h, 14 days after application, read-out: Visual Growth Reduction (%) 14 Days After Application EPHHL; for pest or weed control at 17.5 g/ha: 17.5 g ai/ha; for pest or weed control at 35 g/ha: 35 g ai/ha; for pest or weed control at 70 g/ha: 70 g ai/ha; for pest or weed control at 140 g/ha: 140 g ai/ha
How it was run: as §1

[5] = test system: IPOHE: ivyleaf morningglory (Ipomoea hederacea); assay: Post-emergent herbicidal test, ivyleaf morningglory; settings: post-emergence, 336 h, 14 days after application, read-out: Visual Growth Reduction (%) 14 Days After Application IPOHE; for pest or weed control at 17.5 g/ha: 17.5 g ai/ha; for pest or weed control at 35 g/ha: 35 g ai/ha; for pest or weed control at 70 g/ha: 70 g ai/ha; for pest or weed control at 140 g/ha: 140 g ai/ha
How it was run: as §1

[6] = test system: VIOTR: wild violet (Viola tricolor); assay: Post-emergent herbicidal test, wild violet; settings: post-emergence, 336 h, 14 days after application, read-out: Visual Growth Reduction (%) 14 Days After Application VIOTR; for pest or weed control at 17.5 g/ha: 17.5 g ai/ha; for pest or weed control at 35 g/ha: 35 g ai/ha; for pest or weed control at 70 g/ha: 70 g ai/ha; for pest or weed control at 140 g/ha: 140 g ai/ha
How it was run: as §1

[7] = test system: ABUTH: velvetleaf (Abutilon theophrasti); assay: Post-emergent herbicidal test, velvetleaf; settings: post-emergence, 336 h, 14 days after application, read-out: Visual Growth Reduction (%) 14 Days After Application ABUTH; for pest or weed control at 17.5 g/ha: 17.5 g ai/ha; for pest or weed control at 35 g/ha: 35 g ai/ha; for pest or weed control at 70 g/ha: 70 g ai/ha; for pest or weed control at 140 g/ha: 140 g ai/ha
How it was run: as §1

[8] = test system: SETFA: giant foxtail (Setaria faberi); assay: Post-emergent herbicidal test, giant foxtail; settings: post-emergence, 336 h, 14 days after application, read-out: Visual Growth Reduction (%) 14 Days After Application SETFA; for pest or weed control at 17.5 g/ha: 17.5 g ai/ha; for pest or weed control at 35 g/ha: 35 g ai/ha; for pest or weed control at 70 g/ha: 70 g ai/ha; for pest or weed control at 140 g/ha: 140 g ai/ha
How it was run: as §1

[9] = test system: CYPES: yellow nutsedge (Cyperus esculentus); assay: Post-emergent herbicidal test, yellow nutsedge; settings: post-emergence, 336 h, 14 days after application, read-out: Visual Growth Reduction (%) 14 Days After Application CYPES; for pest or weed control at 17.5 g/ha: 17.5 g ai/ha; for pest or weed control at 35 g/ha: 35 g ai/ha; for pest or weed control at 70 g/ha: 70 g ai/ha; for pest or weed control at 140 g/ha: 140 g ai/ha
How it was run: as §1

[10] = test system: SORVU: shattercane (Sorghum bicolor); assay: Post-emergent herbicidal test, shattercane; settings: post-emergence, 336 h, 14 days after application, read-out: Visual Growth Reduction (%) 14 Days After Application SORVU; for pest or weed control at 17.5 g/ha: 17.5 g ai/ha; for pest or weed control at 35 g/ha: 35 g ai/ha; for pest or weed control at 70 g/ha: 70 g ai/ha; for pest or weed control at 140 g/ha: 140 g ai/ha
How it was run: as §1

[11] = test system: DIGSA: large crabgrass (Digitaria sanguinalis); assay: Post-emergent herbicidal test, large crabgrass; settings: post-emergence, 336 h, 14 days after application, read-out: Visual Growth Reduction (%) 14 Days After Application DIGSA; for pest or weed control at 17.5 g/ha: 17.5 g ai/ha; for pest or weed control at 35 g/ha: 35 g ai/ha; for pest or weed control at 70 g/ha: 70 g ai/ha; for pest or weed control at 140 g/ha: 140 g ai/ha
How it was run: as §1

## COC(=O)c1nc(-c2ccc(Cl)c3c2OCO3)c(F)c(N)c1Cl [Compound 1A, methyl 4-amino-3-chloro-6-(7-chlorobenzo[d][1,3]dioxol-4-yl)-5-fluoropicolinate]
[1]
  pest or weed control at 17.5 g/ha: 8%
  pest or weed control at 35 g/ha: 18%
  pest or weed control at 70 g/ha: 28%
  pest or weed control at 140 g/ha: 30%
[2]
  pest or weed control at 17.5 g/ha: 83%
  pest or weed control at 35 g/ha: 83%
  pest or weed control at 70 g/ha: 88%
  pest or weed control at 140 g/ha: 93%
[3]
  pest or weed control at 17.5 g/ha: 78%
  pest or weed control at 35 g/ha: 88%
  pest or weed control at 70 g/ha: 95%
  pest or weed control at 140 g/ha: 98%
[4]
  pest or weed control at 17.5 g/ha: 3%
  pest or weed control at 35 g/ha: 10%
  pest or weed control at 70 g/ha: 13%
  pest or weed control at 140 g/ha: 18%
[5]
  pest or weed control at 17.5 g/ha: 0%
  pest or weed control at 35 g/ha: 0%
  pest or weed control at 70 g/ha: 0%
  pest or weed control at 140 g/ha: 0%
[6]
  pest or weed control at 17.5 g/ha: 53%
  pest or weed control at 35 g/ha: 95%
  pest or weed control at 70 g/ha: 75%
  pest or weed control at 140 g/ha: 90%
[7]
  pest or weed control at 17.5 g/ha: 85%
  pest or weed control at 35 g/ha: 90%
  pest or weed control at 70 g/ha: 93%
  pest or weed control at 140 g/ha: 95%
[8]
  pest or weed control at 17.5 g/ha: 15%
  pest or weed control at 35 g/ha: 15%
  pest or weed control at 70 g/ha: 25%
  pest or weed control at 140 g/ha: 30%
[9]
  pest or weed control at 17.5 g/ha: 78%
  pest or weed control at 35 g/ha: 83%
  pest or weed control at 70 g/ha: 83%
  pest or weed control at 140 g/ha: 80%
[10]
  pest or weed control at 17.5 g/ha: 25%
  pest or weed control at 35 g/ha: 43%
  pest or weed control at 70 g/ha: 55%
  pest or weed control at 140 g/ha: 65%
[11]
  pest or weed control at 17.5 g/ha: 5%
  pest or weed control at 35 g/ha: 20%
  pest or weed control at 70 g/ha: 50%
  pest or weed control at 140 g/ha: 28%

## Nc1c(F)c(-c2cccc3c2OCO3)nc(C(=O)O)c1Cl [Compound 3]
[1]
  pest or weed control at 17.5 g/ha: 0%
  pest or weed control at 35 g/ha: 0%
  pest or weed control at 70 g/ha: 0%
  pest or weed control at 140 g/ha: 0%
[2]
  pest or weed control at 17.5 g/ha: 70%
  pest or weed control at 35 g/ha: 85%
  pest or weed control at 70 g/ha: 95%
  pest or weed control at 140 g/ha: 95%
[3]
  pest or weed control at 17.5 g/ha: 60%
  pest or weed control at 35 g/ha: 80%
  pest or weed control at 70 g/ha: 95%
  pest or weed control at 140 g/ha: 98%
[4]
  pest or weed control at 17.5 g/ha: 0%
  pest or weed control at 35 g/ha: 0%
  pest or weed control at 70 g/ha: 0%
  pest or weed control at 140 g/ha: 0%
[5]
  pest or weed control at 17.5 g/ha: 0%
  pest or weed control at 35 g/ha: 0%
  pest or weed control at 70 g/ha: 0%
  pest or weed control at 140 g/ha: 0%
[6]
  pest or weed control at 17.5 g/ha: 0%
  pest or weed control at 35 g/ha: 15%
  pest or weed control at 70 g/ha: 30%
  pest or weed control at 140 g/ha: 35%
[7]
  pest or weed control at 17.5 g/ha: 60%
  pest or weed control at 35 g/ha: 80%
  pest or weed control at 70 g/ha: 95%
  pest or weed control at 140 g/ha: 95%
[8]
  pest or weed control at 17.5 g/ha: 0%
  pest or weed control at 35 g/ha: 0%
  pest or weed control at 70 g/ha: 0%
  pest or weed control at 140 g/ha: 0%
[9]
  pest or weed control at 17.5 g/ha: 0%
  pest or weed control at 35 g/ha: 0%
  pest or weed control at 70 g/ha: 0%
  pest or weed control at 140 g/ha: 0%
[10]
  pest or weed control at 17.5 g/ha: 0%
  pest or weed control at 35 g/ha: 0%
  pest or weed control at 70 g/ha: 0%
  pest or weed control at 140 g/ha: 0%
[11]
  pest or weed control at 17.5 g/ha: 0%
  pest or weed control at 35 g/ha: 0%
  pest or weed control at 70 g/ha: 0%
  pest or weed control at 140 g/ha: 0%

Source: patent US11718604B2, “4-amino-6-(1,3-benzodioxole)picolinates and their use as herbicides” (Dow AgroSciences LLC, priority 2018, dated 2023)
